Results on 16 molecules are retold here after US11976083B2, “Inhibitors of peptidylarginine deiminases” (Gilead Sciences, Inc., priority 2020, dated 2024).

In the experiment the target is T1, human PAD4 (Homo sapiens, UniProt Q9UM07).
T1 construct: human PAD4 (NM_012387), A2-P663, was PCR amplified; His-SUMO (N, cleaved yes); made in house; host or cells: E. coli BL21(DE3)
As to the kind of experiment: In vitro PAD4 BAEE biochemical assay. Conditions: BAEE substrate 3 mM, 5 nM PAD4, 2 mM calcium chloride; geometric mean of multiple experiments. The method, boiled down: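 Recombinant human PAD4 (5 nM final) with 2 mM CaCl2 was preincubated with compound 30 min at 25 °C in MOPS buffer pH 7.6, then reacted with 3 mM BAEE for 2 h at 25 °C. After EDTA stop, released ammonia was detected by o-phthalaldehyde/DTT fluorescence (ex 405/em 535 nm); IC50 from four-parameter fit, geometric mean.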

T1 sequence (Q9UM07 2-663): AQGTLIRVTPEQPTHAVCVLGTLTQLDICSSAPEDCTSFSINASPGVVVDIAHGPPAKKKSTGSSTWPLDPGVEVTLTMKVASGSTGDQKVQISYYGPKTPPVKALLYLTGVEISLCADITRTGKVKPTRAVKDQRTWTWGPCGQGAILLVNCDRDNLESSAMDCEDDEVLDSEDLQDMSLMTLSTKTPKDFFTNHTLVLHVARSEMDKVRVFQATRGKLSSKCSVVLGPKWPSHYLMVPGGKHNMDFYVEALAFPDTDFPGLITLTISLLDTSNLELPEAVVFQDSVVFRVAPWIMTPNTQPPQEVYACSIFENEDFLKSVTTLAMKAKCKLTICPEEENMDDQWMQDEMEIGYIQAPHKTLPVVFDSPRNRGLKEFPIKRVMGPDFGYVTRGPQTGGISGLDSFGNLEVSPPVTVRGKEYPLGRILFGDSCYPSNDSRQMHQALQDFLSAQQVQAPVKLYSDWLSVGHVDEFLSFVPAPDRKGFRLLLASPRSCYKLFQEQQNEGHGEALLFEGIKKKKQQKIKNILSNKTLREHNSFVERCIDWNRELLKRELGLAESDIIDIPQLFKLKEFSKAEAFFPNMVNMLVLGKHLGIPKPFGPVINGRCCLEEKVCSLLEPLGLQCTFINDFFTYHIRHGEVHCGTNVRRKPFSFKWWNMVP

Take `COc1cc(C(=O)N2CC[C@@H](OC)[C@@H](N)C2)cc2nc(-c3cc4ccc5nc4n3CCCCC[C@H]3C[C@]3(F)C(=O)N[C@@H]5C)n(C)c12` [Example 688, (2~{R},5~{R},7~{S})-14-[5-[(3~{S},4~{R})-3-amino-4-methoxy-piperidine-1-carbonyl]-7-methoxy-1-methyl-benzimidazol-2-yl]-5-fluoro-2-methyl-3,13,19-triazatetracyclo[11.5.2.0^ {5,7}.0^{16,20}]icosa-1(19), 14,16(20),17-tetraen-4-one]: the half-maximal inhibitory concentration (IC50) (in general, the midpoint of a concentration-inhibition curve) is 0.719 µM.

For `COc1cc(C(=O)N2[C@H]3CC[C@@H]2[C@H](N)[C@H](OC(F)F)C3)cc2nc(-c3cc4ccc5nc4n3CCCCC[C@@H]3C[C@H]3C(=O)N[C@@H]5C)n(C)c12` [Example 581, (2~{R},5~{R},7~{R})-14-[5-[(1~{R},2~{S},3~ {R},5~{S})-2-amino-3-(difluoromethoxy)-8-azabicyclo[3.2.1]octane-8-carbonyl]-7-methoxy-1-methyl-benzimidazol-2-yl]-2-methyl-3,13,19-triazatetracyclo[11.5.2.0^ {5,7}.0^{16,20}]icosa-1(19), 14,16(20),17-tetraen-4-one], the IC50 stood at 0.176 µM.

For `C[C@H]1NC(=O)[C@@H]2C[C@H]2CCCC(F)(F)Cn2c(-c3nc4cc(C(=O)N5C[C@H](N)[C@@H]6CC[C@H]5C6)c(F)c(F)c4n3C3CC3)cc3ccc1nc32` [Example 466, (2~{R},5~{R},7~{R})-14-[5-[(1~{S),4~{R},5~{R})-4-amino-2-azabicyclo[3.2.1]octane-2-carbonyl]-1-cyclopropyl-6,7-difluoro-benzimidazol-2-yl]-11,11-difluoro-2-methyl-3,13,19-triazatetracyclo[11.5.2.0^{5,7}.0^{16,20}] icosa-1(19),14,16(20),17-tetraen-4-one], the IC50 is 0.055 µM.

Take `COc1cc(C(=O)N2[C@H]3CC[C@@H]2[C@H](N)[C@H](OC)C3)cc2nc(-c3cc4ccc5nc4n3CCCCC[C@@H]3C[C@H]3C(=O)N[C@@H]5C)n(C)c12` [Example 584, (2~{R},5~{R},7~{R})-14-[5-[(1~{R},2~{S},3~ {R},5~{S})-2-amino-3-methoxy-8-azabicyclo[3.2.1]octane-8-carbonyl]-7-methoxy-1-methyl-benzimidazol-2-yl]-2-methyl-3,13,19-triazatetracyclo [11.5.2.0^{5,7}.0^{16,20}] icosa-1(19),14,16(20), 17-tetraen-4-one]: the IC50 was 0.051 µM.

As to `CO[C@@H]1CCN(C(=O)c2cc(F)c3c(c2)nc(-c2cc4ccc5nc4n2CC(F)(F)CCC[C@@H]2C[C@H]2C(=O)N[C@@H]5C)n3[C@H]2C[C@@H]2F)C[C@@H]1N` [Example 834, (2~{R},5~{R},7~{R})-14-[5-[(3~{S),4~{R})-3-amino-4-methoxy-piperidine-1-carbonyl]-7-fluoro-1-[(1~{S},2~{S})-2-fluorocyclopropyl]benzimidazol-2-yl]-11,11-difluoro-2-methyl-3,13,19-triazatetracyclo [11.5.2.0^{5,7}.0^{16,20}] icosa-1(19),14,16(20), 17-tetraen-4-one], the IC50 was determined as 0.126 µM.

Consider `COc1cc(C(=O)N2CC[C@H]3OCCN[C@H]3C2)cc2nc(-c3cc4ccc5nc4n3CC(F)(F)CCC[C@@H]3C[C@H]3C(=O)N[C@@H]5C)n(C)c12` [Example 803, (2~{R},5~{R},7~{R})-14-[5-[(4~{a}~{S},8~{a}~{R})-2,3,4,4~{a},5,7,8,8~{a}-octahydropyrido[4,3-b][1,4]oxazine-6-carbonyl]-7-methoxy-1-methyl-benzimidazol-2-yl]-11,11-difluoro-2-methyl-3,13,19-triazatetracyclo[11.5.2.0^ {5,7}.0^{16,20}]icosa-1(18),14,16,19-tetraen-4-one], for which the IC50 was found to be 0.118 µM.

`C[C@H]1NC(=O)[C@@H]2C[C@@]2(F)CCCCCn2c(-c3nc4cc(C(=O)N5C[C@H](N)[C@@H]6CC[C@H]5C6)cc(F)c4n3C3CC3)cc3ccc1nc32` [Example 450, (2~{R},5~{S},7~{S})-14-[5-[(1~{S},4~{R},5~{R})-4-amino-2-azabicyclo[3.2.1]octane-2-carbonyl]-1-cyclopropyl-7-fluoro-benzimidazol-2-yl]-7-fluoro-2-methyl-3,13,19-triazatetracyclo[11.5.2.0^{5,7}.0^{16,20}] icosa-1(19),14,16(20),17-tetraen-4-one]: the IC50 came to 0.021 µM.

On to `COCCOCCn1c(-c2cc3ccc4nc3n2CCCCC[C@@H]2C[C@H]2C(=O)N[C@@H]4C)nc2cc(C(=O)N[C@H]3CNCC[C@@H]3F)c(F)cc21` [Example 427, 6-fluoro-~{N}-[(3~{S),4~{S})-4-fluoro-3-piperidyl]-1-[2-(2-methoxyethoxy)ethyl]-2-[(2~{R},5~{R},7~{R})-2-methyl-4-oxo-3,13,19-triazatetracyclo[11.5.2.0^{5,7}.0^{16,20}]icosa-1(19),14,16(20),17-tetraen-14-yl]benzimidazole-5-carboxamide], for which the IC50 was determined as 0.054 µM.

`COc1cc(C(=O)N2CC[C@@H](OC)[C@@H](N)C2)cc2nc(-c3cc4ccc5nc4n3CCCCCc3cnc(C)nc3C(=O)N[C@@H]5C)n(C)c12` [Example 610, (2~{R})-17-[5-[(3~{S},4~ {R})-3-amino-4-methoxy-piperidine-1-carbonyl]-7-methoxy-1-methyl-benzimidazol-2-yl]-2,7-dimethyl-3,6,8,16,22-pentazatetracyclo[14.5.2.0^ {5,10}.0^{19,23}]tricosa-1(21),5(10),6,8,17,19,22-heptaen-4-one]: the concentration for half-maximal inhibition (IC50) worked out at 0.19 µM.

Turning to `COc1cc(C(=O)N2[C@H]3CC[C@@H]2[C@H](N)C3)cc2nc(-c3cc4ccc5cc4n3CCCCCCC(C)(C)C(=O)Nc3ccccc3-5)n(C)c12` [Example 100, 18-[5-[(1~{R},2~{R},4~{S})-2-amino-7-azabicyclo[2.2.1]heptane-7-carbonyl]-7-methoxy-1-methyl-benzimidazol-2-yl]-10,10-dimethyl-8,17-diazatetracyclo[15.5.2.0^{2,7}.0^{20,24}] tetracosa-1(23),2(7),3,5,18,20(24),21-heptaen-9-one], the half-maximal inhibitory concentration (IC50) was found to be 0.833 µM.

With `COc1cc(C(=O)N[C@H]2CNCC[C@@H]2F)cc2nc(-c3cc4ccc5nc4n3CC/C=C\C[C@H]3C[C@H]3C(=O)N[C@@H]5C)n(C)c12` [Example 516, ~{N}-[(3~{S},4~ {S})-4-fluoro-3-piperidyl]-7-methoxy-1-methyl-2-[(2~{R},5~{R},7~ {S},9~{Z})-2-methyl-4-oxo-3,13,19-triazatetracyclo[11.5.2.0^ {5,7}.0^{16,20}]icosa-1(19),9,14,16(20),17-pentaen-14-yl]benzimidazole-5-carboxamide], the IC50 turned out to be 0.048 µM.

In the case of `COc1cc(C(=O)N2C[C@H](N)[C@@H]3CC[C@H]2C3)cc2nc(-c3cc4ccc5nc4n3CC(F)(F)CCCc3ccccc3C(=O)N[C@@H]5C)n(C)c12` [Example 716, (2~{R})-17-[5-[(1~{S},4~ {R},5~{R})-4-amino-2-azabicyclo[3.2.1]octane-2-carbonyl]-7-methoxy-1-methyl-benzimidazol-2-yl]-14,14-difluoro-2-methyl-3,16,22-triazatetracyclo [14.5.2.0^{5,10}.0^{19,23}] tricosa-1(22),5(10),6,8,17, 19(23),20-heptaen-4-one], the IC50 came out at 0.013 µM.

As for `COc1cc(C(=O)N2CC[C@@H](OC)[C@@H](N)C2)cc2nc(-c3cc4ccc5c(F)c4n3CC(F)(F)CCC[C@@H]3C[C@H]3C(=O)N[C@@H]5C)n(C)c12` [Example 648, (2~{R},5~{R},7~{R})-14-[5-[(3~{S},4~{R})-3-amino-4-methoxy-piperidine-1-carbonyl]-7-methoxy-1-methyl-benzimidazol-2-yl]-11,11,19-trifluoro-2-methyl-3,13-diazatetracyclo[11.5.2.0^ {5,7}.0^{16,20}] icosa-1(19),14,16(20), 17-tetraen-4-one], the IC50 was 0.041 µM.

In the case of `COc1cc(C(=O)N2CC[C@@H]3OCCN[C@@H]3C2)cc2nc(-c3cc4ccc5nc4n3C[C@H]3C[C@H]3COCCC(=O)N[C@@H]5C)n(C)c12` (single isomer, unassigned) [Example 246, (3˜{S},5˜{R},12˜{R})-18-[5-[(4˜{a}˜{R},8˜{a}˜{S})-2,3,4,4˜{a},5,7,8,8˜{a}-octahydropyrido[4,3-b][1,4]oxazine-6-carbonyl]-7-methoxy-1-methyl-benzimidazol-2-yl]-12-methyl-7-oxa-1,11,20-triazatetracyclo[11.5.2.0^{3,5}.0^{16,19}]icosa-13(20),14,16(19),17-tetraen-10-one], the IC50 was 3.32 µM.

With `COc1cc(C(=O)N2C[C@H](N)[C@@H]3CC[C@H]2C3)cc2nc(-c3cc4ccc5nc4n3CCCCCOC3(CC3)C(=O)N[C@@H]5C)n(C)c12` [Example 910, (11~{R})-17-[5-[(1~{S},4~ {R},5~{R})-4-amino-2-azabicyclo [3.2.1]octane-2-carbonyl]-7-methoxy-1-methyl-benzimidazol-2-yl]-11-methyl-spiro[7-oxa-1,10,19-triazatricyclo[10.5.2.0^{15,18}]nonadeca-12(19), 13,15(18),16-tetraene-8,1′-cyclopropane]-9-one], the 50% inhibitory concentration (IC50) was found to be 0.049 µM.

`COc1cc(C(=O)N2C[C@@H](O)C[C@@H](N)[C@H]2C)cc2nc(-c3cc4ccc5nc4n3CCCCCCC(C)(C)C(=O)N[C@@H]5C)n(C)c12` [Example 800, (11~{R})-17-[5-[(2~{R},3~{R}, 5~{S})-3-amino-5-hydroxy-2-methyl-piperidine-1-carbonyl]-7-methoxy-1-methyl-benzimidazol-2-yl]-8,8,11-trimethyl-1,10,19-triazatricyclo [10.5.2.0^{15,18}]nonadeca-12,14,16,18-tetraen-9-one]: the IC50 turned out to be 0.074 µM.
